From article PMC3263612, “Development of an Oral Form of Azacytidine: 2′3′5′Triacetyl-5-Azacytidine” (Chemotherapy Research and Practice, 2011)
Converted amounts (≈) assume the structure as drawn.

Columns and labels:
[1] = Solubility at various pH; type: physicochemical
Protocol: The solubility of TAC in comparison to ACT was evaluated at various pH. TAC and ACT were equally soluble at pH1 (40 mg/mL) and pH3 (25 mg/mL), while TAC was more soluble than ACT at pH5 (30 mg/mL versus 15 mg/mL) and pH7 (30 mg/mL versus 10 mg/mL). […] At pH 1, we observed a moderate hydrolysis of TAC (26%) to the mono- and diesters in the first 3 hours of incubation increasing to 60% after 6 hrs. However, after 24, 99% of TAC was hydrolyzed, including 46% to the parent compound, ACT.

[2] = Drug stability at pH 1, 3, 5 and 7.4 (LC/MS/MS); type: physicochemical; conditions: throughout the pH range, maximum stability at pH 1; data not shown
Protocol: ACT and TAC stabilities were determined after incubation at pH1 (2% Phosphoric acid), pH3 (0.1% Formic Acid), pH5 (K3PO4), and pH7.4 (Dulbecco's PBS). 100 ng of each compound was resuspended in 1.2 mL total volume, and 200 μL samples taken at 1, 3, 6, 29, and 48 hr. Each pH point was repeated 6 times in 2 dram vials with Teflon-lined screw caps at room temperature. Samples were extracted by solid-phase extraction using 100 ng decitabine as an internal standard and analyzed by tandem mass spectroscopy as described above.

[3] = LogP determination, shake-flask water/octanol; type: physicochemical; conditions: un-ionized, read-out: experimental LogP
Protocol: The OSIRIS Property Explorer software was used to generate initial cLogP values. […] The pH of the water was 2 units above the pKa of the compound, preventing ionization. The experiment was conducted using the shake-flask method, after allowing octanol and water to equilibrate for 24 hours at 25°C. The initial drug concentration in water was 0.2 mM. Tubes were rotated at a 45 degree angle for 10 minutes with a 3 second rotation. The test was performed in a constant environment of 20°C–25°C. Tubes were centrifuged at 1000 g for 10 minutes, and the octanol phase was extracted. The UV/Visible absorption spectrum was evaluated from 550 nm to 210 nm to determine the absorption maximum. The analyte concentration was determined and the LogP calculated: Log = log(concentration in octanol/concentration in water).

[4] = Pharmacokinetics and metabolism of TAC in mice; type: in vivo, C57/BL6 mice; conditions: ACT 25 mg/kg i.v., analyte ACT
Protocol: To monitor the in vivo absorption, distribution, and metabolism of TAC, a highly sensitive LC/MS/MS analytical method was developed that allows the quantitation of concentrations as low as 10 ng/mL of TAC and its metabolites. The samples were prepared by adding 200 μL of plasma to 400 μL of cold acetonitrile, vortexed, and centrifuged at 14,000 rpm for 10 minutes. The supernatant was placed into a 10 × 75 mm glass test tube and evaporated to 50 μL under nitrogen at 37°C. The residue was then diluted with 1 mL of 2% phosphoric acid and vortexed for 10 seconds at 3,000 rpm.
Solid phase extraction was conducted using a Varian Bond Elute PLEXA PCX 1 mL columns placed on a vacuum manifold. Columns were activated by adding 1 mL of MeOH followed by 1 mL H2O and 1 mL of 2% phosphoric acid. All samples were allowed to drip by gravity flow. The extraction columns were then washed sequentially with 1 mL 2% phosphoric acid, 1 mL H2O, and 1 mL MeOH/AcCN (1/1) and eluted into a 10 × 75 mm glass test tube containing 50 μL of 25% formic acid in MeOH with 2 × 600 μL of 2% NH4OH in MeOH/AcCN (1/1). The liquid was then evaporated to dryness with nitrogen at 37°C, and 100 μL of mobile phase A was added and vortexed for 10 seconds at 3,000 rpm and transferred to LC autosampler vials at 4°C.
HPLC separation was conducted on a reverse phase C18 column (Varian Pursuit C18, 3 micron particle size; 100 mm × 2.0 mm) using a Shimadzu SIL-HTc controller with dual LC-20AD pumps and DGU-20A3 degasser. The separation was achieved using a gradient of Mobile Phase A: 0.1% Formic Acid and Mobile Phase B: 0.1% Formic Acid, 90% MeOH with a flow rate of 400 μL/min at 40°C over 10 minutes. MS/MS fragmentation was performed on an Applied Biosystems API 3200 instrument with a Turbo V Ion Spray ion source and Positive ion polarity.
To evaluate the in vivo pharmacokinetic properties of TAC, C57/BL6 female mice of 20 g body weight were dosed with 38 mg/kg TAC p.o. (equimolar dose to 25 mg/kg of ACT) or 25 mg/kg ACT i.v. via tail vein injection. TAC and ACT were solubilized in 1X PBS immediately before administration and dosed at 0.01 mL/g fasted body weight. Blood samples (two time points per animal, three animals per time point) were obtained via retro-orbital bleeding with Natelson pipettes at 0.5, 1, 2, 4, 8, and 24 hours after drug administration. The collected blood was then centrifuged for 4 minutes at 13,000 g. Plasma was immediately extracted with cold acetonitrile and stored at −80°C until LC/MS/MS analysis.
Noncompartmental plasma pharmacokinetic parameters for TAC prodrug and ACT after oral TAC or i.v ACT administrations were estimated using the sparse sampling option in WinNonlin Software version 4.1 (Pharsight Corp., Mountain View, Calif, USA). Briefly, the WinNonlin sparse sampling option applies the linear trapezoidal rule for area under the concentration-time curve (AUC) calculations and generates a standard error for the mean AUC estimate that accounts for correlations in the data resulting from repeated sampling of individual mice. Parameters of interest included the AUC from time 0 to the last measurable concentration (AUClast), observed peak concentration after oral administration (Cmax), estimated peak concentration after i.v. administration (C0), mean residence time to the last measurable concentration (MRTlast), and the half-life of the terminal phase (T1/2). To assess the multiphasic decline in plasma concentrations, an alpha (T1/2α) half-life was also estimated using a log-linear regression of the mean ACT concentrations through 2 hours after dosing.

[5] = system: P15 promoter methylation; assay: p15INK4B methylation status (EpiTect Methyl qPCR) in L1210 cells; type: cell-based, Mouse; conditions: 48 hours
Protocol: Mouse leukemia cells (L1210) were purchased from ATCC. The published IC50 value for ACT (0.2 uM) was first confirmed using the Promega CellTiter MTS assay. […] Genomic DNA was isolated after 48 hours using the Sigma GenElute Genomic DNA Kit, including the RNase treatment step to ensure no RNA carryover. The methylation status of p15INK4B was determined using a predesigned primer set and the EpiTect Methyl qPCR Assays MethylScreen technology (Qiagen, Frederick, Md, USA).

[6] = system: global DNA methylation; assay: Global methylation detection assay in mouse tissues; type: in vivo, C57BL6 mice; set-up: unit not given here; conditions: 5 days ACT 25 mg/kg or TAC 38 mg/kg p.o., dot blot
Protocol: 24 hours following drug administration, snap-frozen mouse tissues were homogenized and genomic DNA isolated using Promega's Wizard Genomic DNA Purification Kit. 100 ng of EcoRI linearized genomic DNA was spotted onto PVDF membrane. The membrane was air-dried and repermeabilized according to manufacturer's instructions. Nonspecific binding was blocked using 5% milk in PBS-T and washed twice in PBS-T for 5 minutes. The membrane was incubated with primary antibody (1 : 1000 anti-5-methylcytosine in PBS-T, Calbiochem) for 1 hour then washed four times for five minutes each with PBS-T. The membrane was incubated with the HRP-conjugated secondary antibody for 1 hour and washed four times for five minutes each with PBS-T. Signal intensity following ECL detection was quantitated using KODAK Image Station software. Assay results were confirmed using EpiGentek's Methylamp Global DNA Methylation Quantification Kit per manufacturer's instructions.
In an in vivo experiment designed to evaluate the effect of a prolonged administration of TAC on global methylation, TAC (38 mg/kg p.o.) or ACT (25 mg/kg i.p.) diluted in PBS was administered to C57BL6 mice every 24 hours for 5 consecutive days (four animals per group). […] The positive results in gut and spleen were confirmed using the EpiGentek's Methylamp Global DNA Methylation Quantification Kit.

[7] = system: L1210 lymphocytic leukemia; assay: In vivo L1210 lymphocytic leukemia model; set-up: species or system BDF1 mice
Protocol: The in vivo L1210 lymphocytic leukemia model in C57BL/6 × DBA/2 F1(BDF1) female mice was used to evaluate the in vivo antiproliferative effect of TAC. L1210 cells were carried in BDF1 mice by weekly i.p. (intraperitoneal) passages. Leukemia cells from ascites fluid were diluted appropriately in […] medium and injected i.p. (1×10^5 cells/0.1 mL/mouse) into recipient mice. A daily oral administration of TAC (38 mg/kg via oral gavage) or ACT (25 mg/kg administered i.p.) diluted in PBS was given to leukemic BDF1 mice starting 24 hours from the inoculation of L1210 cells for a total of 5 days. Compounds were prepared fresh daily. A group of untreated leukemic mice received sterile water for injections and served as controls.

[8] = system: L1210 cells; set-up: method as in PMID 6083417; conditions: published value, confirmed by MTS assay; cited from earlier work
[9] = oral film-coated formulation, 80 mg dose, cited from earlier work
[10] = female, C57/BL6, mouse, plasma, iv
[11] = tissue 24 hours after treatment

`Nc1ncn([C@@H]2O[C@H](CO)[C@@H](O)[C@H]2O)c(=O)n1` [ACT, 5-azacitidine] gave a solubility ([1]; pH 1, pH1) of 40 mg/mL (≈ 164 mM), a solubility ([1]; pH 3, pH3) of 25 mg/mL (≈ 102 mM) and a solubility ([1]; pH 5, pH5) of 15 mg/mL (≈ 61.4 mM). The solubility ([1]; pH 7, pH7) was 10 mg/mL (≈ 40.9 mM), the “stability of azacitidine in solution” value [2] was “significant degradation” and the logP [3] was -2.32. It also gave a T1/2α ([4]; data through 2 hours) of 0.32 h, a Cmax [4, 10] of 81.1 µM and an MRT last [4, 10] of 1.1 h. It also gave a C0 ([4]; female, C57/BL6, mouse, plasma, iv, estimated peak concentration) of 212 µM, a half-life ([4]; female, C57/BL6, mouse, plasma, iv, terminal phase) of 6.8 h and an AUC(0-t) ([4]; female, C57/BL6, mouse, plasma, iv, mean (standard error)) of 126 µM·h. The “decrease of P15 promoter methylation” value ([5]; 0.1 uM ACT) was 39% (±3), the “decrease of P15 promoter methylation” value ([5]; 10 uM ACT) was 49% (±17) and the “densitometry of methylation level, Gut Average” value ([6]; four animals) was 29. The “densitometry of methylation level, Spleen Average” value ([6]; four animals) was 50, the “densitometry of methylation level, Gut.1” value [6, 11] was 37 and the “densitometry of methylation level, Gut.2” value [6, 11] was 14. The “densitometry of methylation level, Gut.3” value [6, 11] was 34, the “densitometry of methylation level, Gut.4” value [6, 11] was 33 and the “densitometry of methylation level, Spleen.1” value [6, 11] was 54. The “densitometry of methylation level, Spleen.2” value [6, 11] was 71, the “densitometry of methylation level, Spleen.3” value [6, 11] was 48 and the “densitometry of methylation level, Spleen.4” value [6, 11] was 29. The survival ([7]; azacitidine 25 mg/kg i.p. (maximum tolerated dose) daily for 5 days) was 17 days, the increased lifespan ([7]; azacitidine 25 mg/kg i.p. daily for 5 days) was 112% and the weight reduction ([7]; azacitidine 25 mg/kg i.p., L1210-bearing mice) was 16%. For the same compound, the IC50 [8] was 200 nM, the bioavailability ([9]; four human subjects) was 17.4% and the mean plasma half-life ([9]; human) was 0.39 h.
